Consider eight compounds from patent US12378204B2, “Triazole compounds and preparation method therefor and use thereof” (WUHAN LL SCIENCE AND TECHNOLOGY DEVELOPMENT CO., LTD., priority 2019, dated 2025).

Bounds are passed on as bounds.

Series [1] in a line: In vitro metabolic stability, mouse liver microsomes. The class given is in vitro ADME. The note with it: 1 mg/mL liver microsome protein, 37° C. As to the method: (§1) The in vitro metabolic stability of the compounds disclosed herein was determined through incubation of liver microsomes of various species. A proper amount of test compound was added into a liver microsome reaction system (1 mg/mL liver microsome protein, 25 U/mL glucose-6 phosphate dehydrogenase, 1 mM NADP, 6 mM D-glucose 6-phosphate and 5 mM MgCl2), and then the mixture was incubated in a water bath kettle at 37° C. to start reaction. At each time point, 100 μL of the reaction system was added into a centrifuge tube containing 400 μL of internal standard working solution (containing a 200 ng/mL solution of dexamethasone, diclofenac, tolbutamide and labetalol in acetonitrile) precooled at 0° C. so as to stop the reaction, and the mixture was then centrifuged at 10,000 g for 10 min at 4° C. The supernatant was collected for LC-MS assay so as to obtain the values of in vitro metabolic half-life of the test compounds in liver microsomes of various species.

Series [2] has as its system A2058 (human melanoma cells). Put plainly: A2058 cell scratch assay (cell migration inhibition). The class given is cell-based. As to conditions: A2058 scratch area 0 h vs 24 h, 10 μM LPA, read-out: Cell migration inhibition rate. As to the method:
The activity of the compounds disclosed herein at the cell level in vitro is evaluated by A2058 (human melanoma cells, Beina Bio, BNCC341099) cell scratch assay. The inhibitory activity of the compounds against LPAR1 can be reflected by inhibition of cell scratch healing.
A2058 cells in a T75 cm^2 cell culture flask were digested and gently pipetted into single cells, adjusted to a cell density of 4×10^5 cells/mL, and then seeded into a 24-well plate. After the cell confluence reached 80%, the cell culture plate was taken out and the original medium was discarded. Serum-free medium was then added, and the cells were starved overnight in an incubator (37° C., 5% CO2). The cell culture plate was then taken out, and cell scratches were made along the diameter of the wells using a 200 μL pipette tip. The cell culture plate was then added with 500 μL of serum-free medium and then shaken gently to wash away the residual cells on the scratched surface, and this was repeated twice. The medium was discarded and 500 μL of 1% FBS medium containing the compound was then added, and the mixture was incubated at 37° C. for 30 min. […] Olympus CKX53 was used to observe the scratches, and MShot image analysis system was used to take pictures and measure the scratch area at 0 h. Then the cell culture plate was incubated in the incubator (37° C., 5% CO2). 24 h later, the scratches were observed again with Olympus CKX53, and MShot image analysis system was used to take pictures and measure the scratch area at 24 h. Cell migration inhibition rate was calculated according to the following formula: […]

The nature of series [3]: In vitro metabolic stability, rat liver microsomes. The class given is in vitro ADME. The note with it: 1 mg/mL liver microsome protein, 37° C. As to the method:
as §1
(In general: Liver microsomes are a subcellular fraction often used to study metabolism.)

Series [4] concerns the target T1, hLPAR1 (human lysophosphatidic acid receptor 1) (Homo sapiens, UniProt Q92633).
T1 construct: expressed in transfected cells
Nature of the series: FLIPR intracellular calcium assay, hLPAR1 expressed in CHO-K1 cells. Type of series: cell-based. The note with it: antagonism of 1 μM LPA-induced calcium increase, CHO-K1 cells expressing hLPAR1; read-out: LPAR1 IC50. The method, then: The antagonist property of the compounds disclosed herein was determined using the FLIPR (fluorescence imaging plate reader) method, wherein the compounds are inhibitors for the intracellular calcium increase induced by activation of hLPAR1 (human lysophosphatidic acid receptor 1, accession No. NM_001401.4) expressed in CHO-K1 cells (Chinese hamster ovary cells K1, ATCC).
CHO-K1 cells stably expressing hLPAR1 were cultured in F-12 medium containing 10% FBS (fetal bovine serum, Gibco, 10099-141), 1% penicillin-streptomycin (Gibco, 15140-122) and 0.4 mg/mL hygromycin B (Gibco, 10687010) in a cell incubator (37° C., […]). During 18-24 h prior to the FLIPR experiment, cells at 250,000 cells/mL were seeded into a 96-well plate (25,000 cells/well) and incubated overnight in the cell incubator. On the day of the experiment, the medium was discarded and the cells were washed in a FLIPR buffer (0.3 mL of probenecid (Thermo, P36400), 0.6 mL of 1 M HEPES (Invitrogen, 15630080) and 29.1 mL of HBSS (Invitrogen, 14065056) per 30 mL of buffer). Each well was added with 75 μL of 1 mM Fluo-4 AM fluorescent dye (Thermo, F14202) and then the cells were subjected to dye-loading incubation at 37° C. for 1.0 h. The 96-well plate was then washed once with buffer, added with a buffer containing a test compound or vehicle at 50 μL per well and then incubated for 30 min at room temperature. The cell plate was then placed in the FLIPR for baseline fluorescence measurements (excitation at 485 nm and emission at 525-535 nm). An agonist (oleoyl-L-α-lysophosphatidic acid sodium salt (Sigma, L7260) at a final concentration of 1 μM) or a vehicle (ultrapure water) was then added at 50 μL/well, fluorescence values were measured for 2 min at 1-second intervals, and finally the output fluorescence counts were analyzed.
(In general: Calcium assays in cells follow changes in intracellular calcium, usually with a dye or a luminescent sensor.)

Series [5] is described as follows: In vitro cytotoxicity assay in HepG2 cells, CCK-8 method. The class given is cell-based. As to conditions: human, 48 h incubation. As to the method:
In vitro cytotoxicity assay for the compounds disclosed herein was performed in HepG2 cells using the CCK-8 method. HepG2 cells (Beina Bio) in the logarithmic growth phase were collected, the concentration of cell suspension was adjusted, and then the cells were plated on a 96-well cell culture plate at 50,000 cells/well. • The cells were then incubated overnight in a cell incubator (5% CO2, 37° C.), and after 80-90% cell confluence was achieved, test compounds or vehicle (DMSO) at various concentration gradients were added after medium change. The resulting mixture was incubated in the cell incubator (5% CO2, 37° C.) for 48 h. After the treatment, the medium in the plate was discarded. The plate was washed twice with PBS, added with CCK-8 working solution (Beyotime) at 100 μL per well, and then incubated at 37° C. for 1.5 h in the dark. Absorbance at OD450nm was measured for each well on a microplate reader, and CC50 value of each compound was analyzed and calculated.
(Tetrazolium dyes change colour on reduction, which living cells bring about.)

The nature of series [6]: In vitro metabolic stability, human liver microsomes. Type of series: in vitro ADME. The note with it: 1 mg/mL liver microsome protein, 37° C. The method, then: as §1

T1 sequence (Q92633 whole entry): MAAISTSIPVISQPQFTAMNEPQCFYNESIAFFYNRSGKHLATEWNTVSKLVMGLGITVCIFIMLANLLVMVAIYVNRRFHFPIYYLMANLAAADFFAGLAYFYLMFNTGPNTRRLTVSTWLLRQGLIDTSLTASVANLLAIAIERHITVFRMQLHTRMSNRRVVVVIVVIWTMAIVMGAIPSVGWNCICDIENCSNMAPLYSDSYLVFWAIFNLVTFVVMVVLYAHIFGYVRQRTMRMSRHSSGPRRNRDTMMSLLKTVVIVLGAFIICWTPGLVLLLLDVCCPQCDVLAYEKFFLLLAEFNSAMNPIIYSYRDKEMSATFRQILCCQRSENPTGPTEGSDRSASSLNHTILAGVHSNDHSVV

`CN(Cc1ccccc1)C(=O)/C=C/c1c(-c2ccc(O[C@H]3CCC[C@H](C(=O)O)C3)cc2)nnn1C` (racemic) [Compound 2]: the half-life in series [1], in series [3] and in series [6] was greater than 30 min throughout. Besides, in series [2], the inhibition lay in the range of 0 to 30%. In addition, the IC50 – broadly, the concentration that inhibits the measured activity by half – in series [4] was in the range of 50 to 300 nM. Moreover, the CC50 (commonly the concentration giving 50% cytotoxicity) at 48 h in series [5] was greater than 200 µM.

Regarding `CN(Cc1ccccc1)C(=O)CCc1c(-c2ccc(O[C@H]3CCC[C@H](C(=O)O)C3)cc2)nnn1C` (racemic) [Compound 3], the half-life in series [1], in series [3] and in series [6] was greater than 30 min each time. In series [2], the inhibition was 30 to 50%. For the same compound, in series [4], the IC50 was in the range of 50 to 300 nM. In series [5], this compound came in with a CC50 at 48 h greater than 200 µM.

Consider `CN(C(=O)NCc1c(-c2ccc(O[C@H]3CCC[C@H](C(=O)O)C3)c(C(F)(F)F)n2)nnn1C)C1CCCC1` (racemic) [Compound 26, (+/−)-(1S,3S)-3-((6-(5-((3-cyclopentyl-3-methylureido)methyl)-1-methyl-1H-1,2,3-triazol-4-yl)-2-(trifluoromethyl)pyridin-3-yl)oxo)cyclohexane-1-carboxylic acid], for which the half-life in series [1], in series [3] and in series [6] was greater than 30 min each time. In addition, the inhibition in series [2] is 30 to 50%. Further, the 50% inhibitory concentration (IC50) in series [4] was no more than 50 nM. The compound also showed a CC50 at 48 h in series [5] greater than 200 µM.

Turning to `CN(C(=O)CCc1c(-c2ccc(O[C@H]3CCC[C@H](C(=O)O)C3)c(C(F)(F)F)n2)nnn1C)C1CCCC1` (racemic) [Compound 27-A, (+/−)-(1S,3S)-3-((6-(5-(3-(cyclopentyl(methyl)amino)-3-carbonylpropyl)-1-methyl-1H-1,2,3-triazol-4-yl)-2-(trifluoromethyl)pyridin-3-yl)oxo)cyclohexane-1-carboxylic acid], the figures for the half-life in series [1], in series [3] and in series [6] were 192 min, 57 min and 232 min, respectively. Further, the inhibition in series [2] lay within 50 to 70%. Also, the IC50 in series [4] was no more than 50 nM. Moreover, in series [5], the CC50 at 48 h is greater than 200 µM.

For `CN(C(=O)OC1CCCC1)c1c(-c2ccc(O[C@H]3CCC[C@H](C(=O)O)C3)cc2)nnn1C` (racemic) [Compound 31, (+/−)-(1S,3S)-3-(4-(5-(((cyclopentyloxy)carbonyl)(methyl)amino)-1-methyl-1H-1,2,3-triazol-4-yl)phenoxy)cyclohexane-1-carboxylic acid], the half-life in series [1], in series [3] and in series [6] was greater than 30 min in each case. Further, in series [2], the inhibition is 30 to 50%. Further, the IC50 in series [4] was 50 to 300 nM. This compound also returned a CC50 at 48 h in series [5] greater than 200 µM.

As to `CN(Cc1ccccc1)C(=O)OCc1c(-c2ccc(Oc3cc(Cl)ccc3C(=O)O)cc2)nnn1C` [Compound 7, 4-chloro-2-(4-(5-(((benzyl(methyl)carbamoyl)oxo)methyl)-1-methyl-1H-1,2,3-triazol-4-yl)phenoxy)benzoic acid], the half-life – broadly, how long it takes for the measured level to halve – in series [1] was greater than 30 min; in series [3], less than 30 min; in series [6] it was greater than 30 min. The inhibition in series [2] fell in the range of 0 to 30%. Also, the 50% inhibitory concentration (IC50) in series [4] is 300 to 10000 nM. Besides, in series [5], the CC50 at 48 h was greater than 200 µM.

Consider `CN(C(=O)NCc1c(-c2ccc(O[C@H]3CCC[C@H](C(=O)O)C3)c(F)c2)nnn1C)C1CCCC1` [Compound 25], for which the half-life in series [1], in series [3] and in series [6] was greater than 30 min in each case. Moreover, in series [2], the inhibition lay within 30 to 50%. In series [4], the IC50 was in the range of 50 to 300 nM. The CC50 at 48 h in series [5] was greater than 200 µM.

With `Cn1nnc(-c2ccc(O[C@H]3CCC[C@H](C(=O)O)C3)c(C(F)(F)F)n2)c1C1CN(C2CCCC2)C(=O)O1` (stereo partly drawn) [Compound 29], the inhibition in series [2] was in the range of 0 to 30%. Moreover, the half-maximal inhibitory concentration (IC50) in series [4] was 300 to 10000 nM. Also, the CC50 at 48 h in series [5] was greater than 200 µM.
